Source: article PMC5874699, “Antimicrobial and Antibiofilm Activity of UP-5, an Ultrashort Antimicrobial Peptide Designed Using Only Arginine and Biphenylalanine” (Pharmaceuticals, 2018)
Like-named read-outs stand apart in the source and are kept apart here. Square brackets hold non-standard residues; d marks the D form. Peptide text beside a SMILES is read from it. Bip = N[C@@H](Cc1ccc(-c2ccccc2)cc1)C(=O)O

How the values were obtained:
[1] = tested on: human erythrocytes; assay type: cell-based
Experimental: Two milliliters of human blood were placed into a 50 mL centrifuge tube and centrifuged (3000× g). The supernatant was discarded, the cell pellet re-suspended in 48 mL of PBS, and centrifuged as above; this step was repeated twice. Finally, 2 mL of cell pellet were re-suspended in a sterile tube containing 48 mL PBS to reach a final concentration of 4% RBC. […] Positive controls were prepared by adding 5 µL of 0.1% (Triton 100X) to 2 mL of 4% RBC suspension and negative controls were prepared by adding 2 mL of 4% RBC suspension only. All preparations were incubated for 60 min at 37 °C. Next, the tubes were gently vortexed and 1 mL of each sample were removed and placed into sterilized eppendorf tubes and then centrifuged (3000× g). Then, 200 µL of each supernatant was placed into a 96 well-plate. Absorbance was measured at λ = 450 nm with the aid of an ELISA reader. The percentage hemolysis was calculated according to the following equation:(2) % Hemolysis=A−AO/AX−AO×100 where A is the optical density at 450 nm (OD450) of the peptide solution, AO is the OD450 of the negative control (0.9% NaCl) and AX is the OD450 of the positive control (0.1% Triton 10X).

[2] = in vitro; assay type: in vitro ADME; details: mouse
Experimental: The stability assay of UP-5 relied on a previously reported stability test procedure employing mouse plasma or mouse serum (PAA Laboratories, Pasching, Austria). Briefly, a stock solution of the peptide was prepared in 5% aqueous DMSO. The highest DMSO concentration was less than 0.5% after dilution in order to have a final concentration of peptide equal to 1 g/L. Each peptide was dissolved in plasma or serum at a final concentration corresponding to 75 µg/mL and incubated at 37 °C (750 rpm, Eppendorf, Hamburg, Germany). After different time periods, aliquots (47.5 µL) were taken and proteins were precipitated by addition of 150 µL of a mixture composed acetonitrile, water, and formic acid (89:10:1 by volume). The samples were incubated on ice for 45 min and centrifuged for 10 min at 13,000× g (Eppendorf, Hamburg, Germany). […] The second supernatant (155 µL) was collected and dried under vacuum. The samples were dissolved in 3% aqueous acetonitrile containing, 0.1% formic acid, and were analyzed using an Agilent 1100 HPLC system (Agilent Technologies, Santa Clara, CA, USA), coupled online to an Esquire HCT mass spectrometer (Bruker Daltonik GmbH, Bremen, Germany) equipped with an analytical Jupiter C18-reversed phase column (2 mm inner diameter, 150 mm length, 5 µm particle size, […]). Eluent A contained 0.1% formic acid in water and Eluent B was 60% aqueous acetonitrile containing 0.1% formic acid.

With `N=C(N)NCCC[C@H](NC(=O)[C@H](Cc1ccc(-c2ccccc2)cc1)NC(=O)[C@H](CCCNC(=N)N)NC(=O)[C@H](Cc1ccc(-c2ccccc2)cc1)NC(=O)[C@@H](N)CCCNC(=N)N)C(=O)O` [UP-5] (H-R[Bip]R[Bip]R-OH) as the molecule, how does the “Hemolysis (%)” value ([1]; 40 µM) read?
The value was 0.09%.

What about the “Hemolysis (%)” value ([1]; 60 µM) of the same molecule?
Its value is 1.01%.

And the “Hemolysis (%)” value ([1]; 80 µM)?
Its value is 1.04%.

And the “Hemolysis (%)” value ([1]; 150 µM)?
The value was 3.0%.

And the “Hemolysis (%)” value ([1]; 175 µM)?
The value was 3.04%.

And the half-life at 75 µg/mL ([2]; plasma)?
The half-life at 75 µg/mL was 2.88 h.

And the metabolised at 1 h, 75 µg/mL ([2]; plasma)?
The metabolised at 1 h, 75 µg/mL was 27%.

What about the metabolised at 4 h, 75 µg/mL ([2]; plasma) of the same molecule?
Its metabolised at 4 h, 75 µg/mL is 66%.

And the remaining at 1 h, 75 µg/mL ([2]; plasma)?
The remaining at 1 h, 75 µg/mL was 73%.

And the remaining at 4 h, 75 µg/mL ([2]; plasma)?
The remaining at 4 h, 75 µg/mL was 34%.

And the half-life at 75 µg/mL ([2]; serum)?
Its half-life at 75 µg/mL is under 0.25 h.

What about the metabolised at 0.25 h, 75 µg/mL ([2]; serum) of the same molecule?
The metabolised at 0.25 h, 75 µg/mL was over 80%.
